Experimental data published in US9765358B2 (priority 2015, dated 2017).

Legend:
[1] = test system: Clostridium beijerinckii; assay type: cell-based
[2] = test system: Lactobacillus plantarum; assay type: cell-based

Molecule	antibiotic susceptibility (disc, zone of clearance) [1]	antibiotic susceptibility (disc, zone of clearance) [2]
CC[C@H]1OC(=O)[C@H](C)[C@@H](O[C@H]2C[C@@](C)(OC)[C@@H](O)[C@H](C)O2)[C@H](C)[C@@H](O[C@@H]2O[C@H](C)C[C@H](N(C)C)[C@H]2O)[C@](C)(O)C[C@@H](C)CN(C)[C@H](C)[C@@H](O)[C@]1(C)O [azithromycin]	susceptible	susceptible
CC1(C)S[C@@H]2[C@H](NC(=O)C(C(=O)O)c3ccccc3)C(=O)N2[C@H]1C(=O)O (stereo partly drawn) [carbenicillin]	susceptible	resistant
Cc1ncc([N+](=O)[O-])n1CCO [metronidazole]	susceptible	resistance
CN[C@H](CC(C)C)C(=O)N[C@H]1C(=O)N[C@@H](CC(N)=O)C(=O)N[C@H]2C(=O)N[C@H]3C(=O)N[C@H](C(=O)N[C@H](C(=O)O)c4cc(O)cc(O)c4-c4cc3ccc4O)[C@H](O)c3ccc(c(Cl)c3)Oc3cc2cc(c3O[C@@H]2O[C@H](CO)[C@@H](O)[C@H](O)[C@H]2O[C@H]2C[C@](C)(N)[C@H](O)[C@H](C)O2)Oc2ccc(cc2Cl)[C@H]1O [vancomycin]	susceptible	
amoxicillin/clavulinic acid	susceptible	resistant
